Measured values: patent US10047051B2, “Substituted pyridines and method of use” (AbbVie S.á{acute over (.)}r.l., priority 2015, dated 2018)

Experiments:
CFTR ΔF508 mutant = biological target: T1, CFTR ΔF508 mutant (Homo sapiens, UniProt P13569, DEL508-508); test: YFP-halide influx assay for the CFTR-ΔF508 mutation (CFBE41o- cells); format: cell-based; details: forskolin 10.67 μM; for EC50: from (1−F/F0) vs concentration plot
T1 construct: expressed in transfected cells; host or cells: CFBE41o- cells, adenoviral transduction
How it was run: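 EC50 derived from plotting 1−F/F0 (fluorescence 36 s after iodide injection over pre-injection value) against compound concentration. Cells: CFBE41o- transduced with ΔF508-CFTR and YFP quench reporter, corrected 24 h at 27° C or by a CFTR modulator at 37° C.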

CFTR G551D mutant = biological target: T2, CFTR G551D mutant (Homo sapiens, UniProt P13569, G551D); test: YFP-halide influx assay for the CFTR-G551D mutation (HEK293 cells); format: cell-based; details: forskolin 10.67 μM
T2 construct: expressed in transfected cells; host or cells: HEK293 cells, reverse transfection with plasmids
How it was run: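 Channel opening read as I⁻-driven quenching of a YFP H148Q/I152L/F47L reporter over 7 s post-injection, expressed as 1−F/F0 and fitted against concentration for EC50. Cells were HEK293 co-transfected at seeding with G551D CFTR plus reporter, then grown 24 h at 37 °C, 5% CO2.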

T1 sequence (P13569 with tags, fused parts or gaps DEL508-508): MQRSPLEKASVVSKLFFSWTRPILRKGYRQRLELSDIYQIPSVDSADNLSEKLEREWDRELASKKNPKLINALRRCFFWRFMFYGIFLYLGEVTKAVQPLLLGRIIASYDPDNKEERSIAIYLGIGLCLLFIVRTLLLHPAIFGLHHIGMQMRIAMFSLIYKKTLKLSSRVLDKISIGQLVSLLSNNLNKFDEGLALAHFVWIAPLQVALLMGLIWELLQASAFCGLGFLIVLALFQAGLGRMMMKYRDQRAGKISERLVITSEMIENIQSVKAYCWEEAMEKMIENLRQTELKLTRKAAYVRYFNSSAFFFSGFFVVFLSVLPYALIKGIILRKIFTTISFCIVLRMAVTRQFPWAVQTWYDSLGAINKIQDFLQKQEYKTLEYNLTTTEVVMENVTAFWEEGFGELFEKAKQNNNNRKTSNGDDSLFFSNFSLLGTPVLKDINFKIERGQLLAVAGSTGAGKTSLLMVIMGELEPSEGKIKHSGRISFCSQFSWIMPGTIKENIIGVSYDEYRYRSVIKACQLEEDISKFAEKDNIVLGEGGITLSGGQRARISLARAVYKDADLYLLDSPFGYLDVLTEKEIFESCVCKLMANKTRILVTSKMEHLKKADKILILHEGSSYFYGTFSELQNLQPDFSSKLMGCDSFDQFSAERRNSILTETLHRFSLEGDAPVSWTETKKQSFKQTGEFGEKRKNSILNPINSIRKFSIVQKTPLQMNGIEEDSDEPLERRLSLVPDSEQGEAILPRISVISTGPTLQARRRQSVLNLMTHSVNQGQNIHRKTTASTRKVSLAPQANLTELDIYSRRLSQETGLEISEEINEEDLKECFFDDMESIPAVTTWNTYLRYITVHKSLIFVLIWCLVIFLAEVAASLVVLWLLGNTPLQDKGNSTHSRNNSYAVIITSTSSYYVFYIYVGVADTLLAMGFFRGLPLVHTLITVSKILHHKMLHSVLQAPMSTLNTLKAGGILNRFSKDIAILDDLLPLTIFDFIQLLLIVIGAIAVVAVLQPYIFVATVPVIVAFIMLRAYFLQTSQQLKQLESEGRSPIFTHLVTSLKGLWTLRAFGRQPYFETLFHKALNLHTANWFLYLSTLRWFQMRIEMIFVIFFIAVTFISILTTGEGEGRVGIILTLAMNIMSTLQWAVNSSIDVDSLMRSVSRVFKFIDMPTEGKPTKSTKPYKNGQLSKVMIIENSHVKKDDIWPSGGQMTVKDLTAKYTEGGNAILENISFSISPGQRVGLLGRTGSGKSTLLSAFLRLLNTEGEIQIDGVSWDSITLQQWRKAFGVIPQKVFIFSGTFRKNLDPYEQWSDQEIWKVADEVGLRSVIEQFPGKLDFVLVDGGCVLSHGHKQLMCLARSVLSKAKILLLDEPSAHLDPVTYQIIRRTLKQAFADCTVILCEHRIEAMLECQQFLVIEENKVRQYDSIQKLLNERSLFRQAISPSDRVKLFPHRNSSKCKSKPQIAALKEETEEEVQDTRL
T2 sequence (P13569 whole entry G551D): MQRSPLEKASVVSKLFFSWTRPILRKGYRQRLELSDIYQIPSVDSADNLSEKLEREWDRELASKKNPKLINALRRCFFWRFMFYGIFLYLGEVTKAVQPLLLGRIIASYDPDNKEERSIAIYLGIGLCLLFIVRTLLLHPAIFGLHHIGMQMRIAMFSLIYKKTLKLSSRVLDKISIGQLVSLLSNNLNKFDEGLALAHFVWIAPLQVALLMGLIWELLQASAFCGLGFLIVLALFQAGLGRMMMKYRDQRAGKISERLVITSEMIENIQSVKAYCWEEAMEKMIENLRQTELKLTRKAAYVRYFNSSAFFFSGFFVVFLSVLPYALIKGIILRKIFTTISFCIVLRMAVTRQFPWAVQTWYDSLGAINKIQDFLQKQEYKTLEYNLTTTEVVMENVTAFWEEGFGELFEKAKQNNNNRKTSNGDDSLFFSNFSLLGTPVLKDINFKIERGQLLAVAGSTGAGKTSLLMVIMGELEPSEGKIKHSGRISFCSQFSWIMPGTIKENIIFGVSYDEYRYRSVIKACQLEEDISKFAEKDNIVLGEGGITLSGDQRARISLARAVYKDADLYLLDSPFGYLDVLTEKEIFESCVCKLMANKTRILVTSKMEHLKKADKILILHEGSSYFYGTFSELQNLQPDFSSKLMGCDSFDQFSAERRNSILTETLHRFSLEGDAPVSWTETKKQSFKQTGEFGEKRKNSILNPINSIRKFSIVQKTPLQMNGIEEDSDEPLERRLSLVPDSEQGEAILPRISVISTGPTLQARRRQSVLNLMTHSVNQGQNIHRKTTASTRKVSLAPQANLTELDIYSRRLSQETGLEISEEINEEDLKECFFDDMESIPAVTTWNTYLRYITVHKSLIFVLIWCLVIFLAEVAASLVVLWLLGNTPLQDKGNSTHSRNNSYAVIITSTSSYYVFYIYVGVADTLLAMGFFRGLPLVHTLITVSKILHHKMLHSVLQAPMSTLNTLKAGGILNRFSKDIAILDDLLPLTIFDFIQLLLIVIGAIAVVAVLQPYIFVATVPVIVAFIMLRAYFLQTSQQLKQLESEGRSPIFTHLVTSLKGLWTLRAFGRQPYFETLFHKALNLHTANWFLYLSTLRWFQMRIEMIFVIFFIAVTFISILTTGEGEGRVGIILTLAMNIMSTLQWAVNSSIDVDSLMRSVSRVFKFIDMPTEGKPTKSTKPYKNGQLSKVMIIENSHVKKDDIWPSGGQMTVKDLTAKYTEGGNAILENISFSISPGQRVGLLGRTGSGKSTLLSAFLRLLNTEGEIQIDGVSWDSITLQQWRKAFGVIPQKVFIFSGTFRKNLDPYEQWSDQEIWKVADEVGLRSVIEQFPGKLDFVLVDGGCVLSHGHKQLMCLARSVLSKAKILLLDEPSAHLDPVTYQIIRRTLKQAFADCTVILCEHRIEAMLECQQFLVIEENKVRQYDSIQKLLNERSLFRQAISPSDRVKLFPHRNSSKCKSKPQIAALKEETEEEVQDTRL

Row | SMILES | % Activation (CFTR ΔF508 mutant) [%] | EC50 (CFTR ΔF508 mutant) [nM] | % Activation (CFTR G551D mutant) [%] | EC50 (CFTR G551D mutant) [nM]
1 | CC(C)NC(=O)CNC(=O)c1ncc(S(=O)(=O)c2ccc(C(F)(F)F)cc2F)cc1N [Compound 113, 3-amino-5-{[2-fluoro-4-(trifluoromethyl)phenyl]sulfonyl}-N-[2-oxo-2-(propan-2-ylamino)ethyl]pyridine-2-carboxamide] | 101.9 | 10.4 | 41.1 | 297
2 | Nc1cc(S(=O)(=O)c2ccc(OC(F)(F)F)cc2)cnc1C(=O)NCC(=O)NC1CC1 [Compound 58, 3-amino-N-[2-(cyclopropylamino)-2-oxoethyl]-5-{[4-(trifluoromethoxy)phenyl]sulfonyl}pyridine-2-carboxamide] | 92.2 | 20.6 | 42.3 | 1070
3 | N#CC1CN(C(=O)c2ncc(S(=O)(=O)c3ccc(OC(F)(F)F)cc3)cc2N)C1 [Compound 61, 1-[(3-amino-5-{[4-(trifluoromethoxy)phenyl]sulfonyl}pyridin-2-yl)carbonyl]azetidine-3-carbonitrile] | 101.0 | 60.9 | 70.0 | 2730
4 | Nc1cc(S(=O)(=O)c2ccc(F)cc2)cnc1C(=O)NCC(O)C(F)(F)F (stereo not shown) [Compound 27, 3-amino-5-[(4-fluorophenyl)sulfonyl]-N-(3,3,3-trifluoro-2-hydroxypropyl)pyridine-2-carboxamide] | 101.0 | 10.1 | 55.0 | 1240
5 | CCC(CO)NC(=O)c1ncc(S(=O)(=O)c2ccc(OC(F)(F)F)cc2)cc1N (stereo not shown) [Compound 12, 3-amino-N-(1-hydroxybutan-2-yl)-5-{[4-(trifluoromethoxy)phenyl]sulfonyl}pyridine-2-carboxamide] | 114.5 | 36.1 | 43.8 | 692
6 | COC[C@H](O)CNC(=O)c1ncc(S(=O)(=O)c2ccc(OC(F)(F)F)cc2)cc1N [Compound 69, 3-amino-N-[(2R)-2-hydroxy-3-methoxypropyl]-5-{[4-(trifluoromethoxy)phenyl]sulfonyl}pyridine-2-carboxamide] | 102.0 | 5.7 | 85.0 | 1080
7 | Nc1cc(S(=O)(=O)c2ccc(C(F)(F)F)cc2F)cnc1C(=O)N1CC(C(F)(F)F)C1 [Compound 160, (3-amino-5-{[2-fluoro-4-(trifluoromethyl)phenyl]sulfonyl}pyridin-2-yl)[3-(trifluoromethyl)azetidin-1-yl]methanone] | 113.9 | 23.6 | 52.7 | 566
8 | Nc1cc(S(=O)(=O)c2ccc(OC(F)(F)F)cc2F)cnc1C(=O)N1CC(F)(F)C1 [Compound 172, (3-amino-5-{[2-fluoro-4-(trifluoromethoxy)phenyl]sulfonyl}pyridin-2-yl)(3,3-difluoroazetidin-1-yl)methanone] | 95.9 | 13.4 | 62.4 | 864
9 | CC1(C)CN(C(=O)c2ncc(S(=O)(=O)c3ccc(C(F)(F)F)cc3F)cc2N)C1 [Compound 111, (3-amino-5-{[2-fluoro-4-(trifluoromethyl)phenyl]sulfonyl}pyridin-2-yl)(3,3-dimethylazetidin-1-yl)methanone] | 103.2 | 22.6 | 99.2 | 851
10 | CC(C)C1(O)CN(C(=O)c2ncc(S(=O)(=O)c3ccc(OC(F)(F)F)cc3F)cc2N)C1 [Compound 175, (3-amino-5-{[2-fluoro-4-(trifluoromethoxy)phenyl]sulfonyl}pyridin-2-yl)[3-hydroxy-3-(propan-2-yl)azetidin-1-yl]methanone] | 103.0 | 6.3 | 44.0 | > 3330
11 | Nc1cc(S(=O)(=O)N2CCCC(F)C2)cnc1C(=O)NCC(O)C(F)(F)F (stereo not shown) [Compound 194, 3-amino-5-[(3-fluoropiperidin-1-yl)sulfonyl]-N-(3,3,3-trifluoro-2-hydroxypropyl)pyridine-2-carboxamide] | 95.7 | 32.7 | 62.3 | 1780
12 | CN(C1CC1)S(=O)(=O)c1cnc(C(=O)NCC(O)C(F)(F)F)c(N)c1 (stereo not shown) [Compound 94, 3-amino-5-[cyclopropyl(methyl)sulfamoyl]-N-(3,3,3-trifluoro-2-hydroxypropyl)pyridine-2-carboxamide] | 102.0 | 22.2 | 43.4 | 1140
13 | CC1CN(C(=O)c2ncc(S(=O)(=O)c3ccc(OC(F)(F)F)cc3)cc2N)C1 [Compound 126, (3-amino-5-{[4-(trifluoromethoxy)phenyl]sulfonyl}pyridin-2-yl)(3-methylazetidin-1-yl)methanone] | 92.9 | 64.9 | 62.2 | 1470
14 | Nc1cc(S(=O)(=O)N2CCC(F)(F)CC2)cnc1C(=O)NCC(O)C(F)(F)F (stereo not shown) [Compound 84, 3-amino-5-[(4,4-difluoropiperidin-1-yl)sulfonyl]-N-(3,3,3-trifluoro-2-hydroxypropyl)pyridine-2-carboxamide] | 101.0 | 10.5 | 64.4 | 1940
15 | Nc1cc(S(=O)(=O)c2ccc(C(F)(F)F)cc2)cnc1C(=O)N1CC(O)(C(F)(F)F)C1 [Compound 105, (3-amino-5-{[4-(trifluoromethyl)phenyl]sulfonyl}pyridin-2-yl)[3-hydroxy-3-(trifluoromethyl)azetidin-1-yl]methanone] | 103.5 | 2 | 50.4 | 128
16 | COCCCNC(=O)c1ncc(S(=O)(=O)c2ccc(OC(F)(F)F)cc2)cc1N [Compound 123, 3-amino-N-(3-methoxypropyl)-5-{[4-(trifluoromethoxy)phenyl]sulfonyl}pyridine-2-carboxamide] | 98.5 | 86.2 | 60.5 | 880

Now from value to compound:

Row | % Activation (CFTR ΔF508 mutant) [%] | EC50 (CFTR ΔF508 mutant) [nM] | % Activation (CFTR G551D mutant) [%] | EC50 (CFTR G551D mutant) [nM] | SMILES
17 | 109 | 53 | 85 | 518 | NC(=O)c1ncc(S(=O)(=O)c2ccc(OC(F)(F)F)cc2)cc1N [Compound 297, 3-amino-5-{[4-(trifluoromethoxy)phenyl]sulfonyl}pyridine-2-carboxamide]
18 | 105.0 | 44.1 | 21.3 | > 10000 | C[C@H](O)CNC(=O)c1ncc(S(=O)(=O)N(C)C2CCC2)cc1N [Compound 278, 3-amino-5-[cyclobutyl(methyl)sulfamoyl]-N-[(2S)-2-hydroxypropyl]pyridine-2-carboxamide]
19 | 81.0 | > 667 | 28.1 | > 10000 | CC(C)(CO)NC(=O)c1ncc(S(=O)(=O)c2ccc(C(F)(F)F)cc2)cc1N [Compound 227, 3-amino-N-(1-hydroxy-2-methylpropan-2-yl)-5-{[4-(trifluoromethyl)phenyl]sulfonyl}pyridine-2-carboxamide]
20 | 112.0 | 10.3 | 39.5 | 1010 | Nc1cc(S(=O)(=O)c2ccc(OC(F)(F)F)cc2)cnc1C(=O)NCC(O)CF (stereo not shown) [Compound 273, 3-amino-N-(3-fluoro-2-hydroxypropyl)-5-{[4-(trifluoromethoxy)phenyl]sulfonyl}pyridine-2-carboxamide]
21 | 89.4 | 167 | 50.0 | > 3330 | COc1ccnc(CNC(=O)c2ncc(S(=O)(=O)N3CCC[C@@H]3C)cc2N)n1 [Compound 281, 3-amino-N-[(4-methoxypyrimidin-2-yl)methyl]-5-{[(2S)-2-methylpyrrolidin-1-yl]sulfonyl}pyridine-2-carboxamide]
22 | 111.0 | 6.9 | 69.5 | > 3330 | C[C@H](O)CNC(=O)c1nc(C2CC2)c(S(=O)(=O)c2ccc(F)cc2)cc1N [Compound 274, 3-amino-6-cyclopropyl-5-[(4-fluorophenyl)sulfonyl]-N-[(2S)-2-hydroxypropyl]pyridine-2-carboxamide]
23 | 98.6 | 47.1 | 47.8 | 1140 | Nc1cc(S(=O)(=O)c2ccc(C(F)(F)F)cc2)cnc1C(=O)N[C@@H]1COCC[C@@H]1O (racemic) [Compound 216, rac-3-amino-N-[(3R,4S)-4-hydroxytetrahydro-2H-pyran-3-yl]-5-{[4-(trifluoromethyl)phenyl]sulfonyl}pyridine-2-carboxamide]
24 | 107.0 | 7.8 | 75.2 | 756 | Nc1cc(S(=O)(=O)N2CCC(OC(F)(F)F)CC2)cnc1C(=O)NCC(O)C(F)(F)F (stereo not shown) [Compound 198, 3-amino-N-(3,3,3-trifluoro-2-hydroxypropyl)-5-{[4-(trifluoromethoxy)piperidin-1-yl]sulfonyl}pyridine-2-carboxamide]
25 | 24.0 | > 2000 | 1.0 | > 10000 | Nc1cc(S(=O)(=O)c2ccc(C(F)(F)F)cc2)cnc1C(=O)N1C[C@@H](O)[C@H](O)C1 [Compound 229, (3-amino-5-{[4-(trifluoromethyl)phenyl]sulfonyl}pyridin-2-yl) [(3R,4R)-3,4-dihydroxypyrrolidin-1-yl]methanone]
